Assay results: patent US20230203043A1, “NOVEL IMIDAZOPYRAZINE DERIVATIVES” (Hoffmann-La Roche Inc., priority 2020, published 2023)
Where a name gives a salt, the structure may show the parent alone.

The molecules below were run on Acinetobacter baumannii ATCC17961 (assay: Antimicrobial susceptibility testing: 90% growth inhibitory concentration (IC90) determination in Iso-Sensitest broth, OD600 growth). Conditions: Acinetobacter baumannii, ATCC17961, 16 h, read-out: A. baumannii ATCC 17961 IC90 (uM), strain ATCC 17961, OD600 growth over 16 h.
Type: cell-based
Procedure: Antimicrobial Susceptibility Testing:
90% Growth Inhibitory Concentration (IC90) Determination
The in vitro antimicrobial activity of the compounds was determined according to the following procedure:
The assay used a 10-points Iso-Sensitest broth medium to measure quantitatively the in vitro activity of the compounds against Acinetobacter baumannii ATCC17961 or ATCC17968.
Stock compounds in DMSO were serially twofold diluted (e.g. range from 50 to 0.097 μM final concentration) in 384 wells microtiter plates and inoculated with 49 μl the bacterial suspension in Iso-Sensitest medium to have a final cell concentration of ˜5×10^(5) CFU/ml in a final volume/well of 50 ul/well. Microtiter plates were incubated at 35±2° C.
Bacterial cell growth was determined with the measurement of optical density at λ=600 nm each 20 minutes over a time course of 16 h. Growth inhibition was calculated during the logarithmic growth of the bacterial cells with determination of the concentration inhibiting 50% (IC50) and 90% (IC90) of the growth.
Table 7 provides the 90% growth inhibitory concentrations (IC90) in micromoles per liter of the compounds of present invention obtained against the strain Acinetobacter baumannii ATCC17961 and/or ATCC17968.
With `CCc1cc(Nc2nccn3c(-c4cn(CC(F)(F)F)nc4C(F)(F)F)cnc23)ccc1C(=O)NCCOCCN` [Example 276, N-[2-(2-aminoethoxy)ethyl]-2-ethyl-4-[[3-[1-(2,2,2-trifluoroethyl)-3-(trifluoromethyl)pyrazol-4-yl]imidazo[1,2-a]pyrazin-8-yl]amino]benzamide formate] the IC90 was 0.178 µM.
For `Cc1cc(Nc2nccn3c(-c4cn(CC#N)nc4C(F)(F)F)cnc23)ccc1C(=O)NCC(=O)NCCN` [Example 760, N-[2-(2-aminoethylamino)-2-oxo-ethyl]-4-[[3-[1-(cyanomethyl)-3-(trifluoromethyl)pyrazol-4-yl]imidazo[1,2-a]pyrazin-8-yl]amino]-2-methyl-benzamide formate], the IC90 was 0.718 µM.
`N#CCn1cc(-c2cnc3c(Nc4ccc(C(=O)NCC(=O)N5CC[C@@H](N)C5)c(Cl)c4)nccn23)c(C(F)(F)F)n1` [Example 663, N-[2-[(3R)-3-aminopyrrolidin-1-yl]-2-oxo-ethyl]-2-chloro-4-[[3-[1-(cyanomethyl)-3-(trifluoromethyl)pyrazol-4-yl]imidazo[1,2-a]pyrazin-8-yl]amino]benzamide formate] was tested, and the IC90 was 0.285 µM.
Molecule `N[C@H]1CC[C@@H](C(=O)N2CCN(C(=O)c3ccc(Nc4nccn5c(-c6c[nH]nc6C(F)(F)F)cnc45)cc3Cl)CC2)C1` [Example 340, [4-[(1R,3S)-3-aminocyclopentanecarbonyl]piperazin-1-yl]-[2-chloro-4-[[3-[3-(trifluoromethyl)-1H-pyrazol-4-yl]imidazo[1,2-a]pyrazin-8-yl]amino]phenyl]methanone formate] has an IC90 of 0.194 µM.
For `N#CCn1cc(-c2cnc3c(Nc4ccc(C(=O)N5CCN(C(=O)[C@H]6CC[C@@H](N)C6)CC5)c(Cl)c4)nccn23)c(C(F)(F)F)n1` [Example 192, 2-[4-[8-[4-[4-[(1S,3R)-3-aminocyclopentanecarbonyl]piperazine-1-carbonyl]-3-chloroanilino]imidazo[1,2-a]pyrazin-3-yl]-3-(trifluoromethyl)pyrazol-1-yl]acetonitrile formate], the IC90 was 0.208 µM.
With `N#CCn1cc(-c2cnc3c(Nc4ccc(C(=O)N5CCN(C(=O)C6CCNCC6)CC5)c(Cl)c4)nccn23)c(C(F)(F)F)n1` [Example 366, 2-[4-[8-[3-chloro-4-[4-(piperidine-4-carbonyl)piperazine-1-carbonyl]anilino]imidazo[1,2-a]pyrazin-3-yl]-3-(trifluoromethyl)pyrazol-1-yl]acetonitrile formate] the IC90 was 0.296 µM.
`Cc1cc(Nc2nccn3c(-c4cn(C)nc4C(F)(F)F)cnc23)ccc1C(=O)N1CCN(C(=O)C2(O)CCNCC2)CC1` [Example 471, formic acid; [4-(4-hydroxypiperidine-4-carbonyl)piperazin-1-yl]-[2-methyl-4-[[3-[1-methyl-3-(trifluoromethyl)pyrazol-4-yl]imidazo[1,2-a]pyrazin-8-yl]amino]phenyl]methanone] showed an IC90 of 1.1 µM.
`CCc1cc(Nc2nccn3c(-c4cn(CC#N)nc4C(F)(F)F)cnc23)ccc1C(=O)N1CCNCC1` [Example 260, 2-[4-[8-[3-ethyl-4-(piperazine-1-carbonyl)anilino]imidazo[1,2-a]pyrazin-3-yl]-3-(trifluoromethyl)pyrazol-1-yl]acetonitrile formate] gave an IC90 of 0.519 µM.

Same assay, conditions: Acinetobacter baumannii, ATCC17961, 16 h, strain ATCC 17961, OD600 growth over 16 h, read-out: A. baumannii ATCC 17961 IC90
`N#CCn1cc(-c2cnc3c(Nc4ccc(C(=O)N5CC(N)C5)c(Cl)c4)nccn23)c(C(F)(F)F)n1` [Example 100, 2-[4-[8-[4-(3-aminoazetidine-1-carbonyl)-3-chloroanilino]imidazo[1,2-a]pyrazin-3-yl]-3-(trifluoromethyl)pyrazol-1-yl]acetonitrile] gave an IC90 of 0.1 µM.
With `C#CCn1cc(-c2cnc3c(Nc4ccc(C(=O)N5CCN(C(=O)CN)CC5)c(CC)c4)nccn23)c(C(F)F)n1` [Example 793, 2-amino-1-(4-(4-((3-(3-(difluoromethyl)-1-(prop-2-yn-1-yl)-1H-pyrazol-4-yl)imidazo[1,2-a]pyrazin-8-yl)amino)-2-ethylbenzoyl)piperazin-1-yl)ethan-1-one] the IC90 was 1.93 µM.
Work on `N#CCn1cc(-c2cnc3c(Nc4ccc(C(=O)N5CCN(C(=O)[C@@H]6CC[C@H](N)C6)CC5)c(Cl)c4)nccn23)c(C(F)(F)F)n1` [Example 194, 2-[4-[8-[4-[4-[(1R,3S)-3-aminocyclopentanecarbonyl]piperazine-1-carbonyl]-3-chloroanilino]imidazo[1,2-a]pyrazin-3-yl]-3-(trifluoromethyl)pyrazol-1-yl]acetonitrile formate] yielded an IC90 of 0.274 µM.
Molecule `CCc1cc(Nc2nccn3c(-c4cn(CC(F)F)nc4C(F)(F)F)cnc23)ccc1C(=O)NCC(=O)N1CC[C@@H](N)C1` [Example 687, N-[2-[(3R)-3-aminopyrrolidin-1-yl]-2-oxo-ethyl]-4-[[3-[1-(2,2-difluoroethyl)-3-(trifluoromethyl)pyrazol-4-yl]imidazo[1,2-a]pyrazin-8-yl]amino]-2-ethyl-benzamideformate] has an IC90 of 0.345 µM.
Molecule `N#CCn1cc(-c2cnc3c(Nc4ccc(C(=O)N5CCN(C(=O)CN)CC5)c(F)c4)nccn23)c(C(F)(F)F)n1` [Example 813, 2-(4-(8-((3-fluoro-4-(4-glycylpiperazine-1-carbonyl)phenyl)amino)imidazo [1,2-a]pyrazin-3-yl)-3-(trifluoromethyl)-1H-pyrazol-1-yl)acetonitrile hydrochloride] has an IC90 of 0.21 µM.
For `CCc1cc(Nc2nccn3c(-c4cn(CC#N)nc4C(F)(F)F)cnc23)ccc1C(=O)NCC(=O)NCC1CCCN1` (centres unmarked) [Example 522, 4-[[3-[1-(cyanomethyl)-3-(trifluoromethyl)pyrazol-4-yl]imidazo[1,2-a]pyrazin-8-yl]amino]-2-ethyl-N-[2-oxo-2-(pyrrolidin-2-ylmethylamino)ethyl] benzamide formate], the IC90 was 0.402 µM.
Work on `C#CCn1cc(-c2cnc3c(Nc4cc(C)c(C(=O)N5CCNCC5)c(F)c4)nccn23)c(C(F)(F)F)n1` [Example 67, [2-fluoro-6-methyl-4-[[3-[1-prop-2-ynyl-3-(trifluoromethyl)pyrazol-4-yl]imidazo[1,2-a]pyrazin-8-yl]amino]phenyl]-piperazin-1-ylmethanone] yielded an IC90 of 0.413 µM.
For `N#CCn1cc(-c2cnc3c(Nc4ccc(C(=O)NCCOCCN)c(F)c4)nccn23)c(C(F)(F)F)n1` [Example 810, N-(2-(2-aminoethoxy)ethyl)-4-((3-(1-(cyanomethyl)-3-(trifluoromethyl)-1H-pyrazol-4-yl)imrdazo[1,2-a]pyrazin-8-yl)amino)-2-fluorobenzamide hydrochloride], the IC90 was 0.25 µM.
For `CCc1cc(Nc2nccn3c(-c4cn(CC(F)F)nc4C(F)(F)F)cnc23)ccc1C(=O)NCCCCCN(CC(=O)O)CC1CNC1` [Example 829, 2-[azetidin-3-ylmethyl-[S-[[4-[[3-[1-(2,2-difluoroethyl)-3-(trifluoromethyl)pyrazol-4-yl]imidazo[1,2-α]pyrazin-8-yl]amino]-2-ethyl-benzoyl]amino]pentyl]amino]acetic acid; formic acid], the IC90 was 0.72 µM.
`C#CCn1cc(-c2cnc3c(Nc4ccc(C(=O)N5CCN(C(=O)C6CCNCC6)CC5)c(CC)c4)nccn23)c(C(F)F)n1` [Example 730, (4-(4-((3-(3-(difluoromethyl)-1-(prop-2-yn-1-yl)-1H-pyrazol-4-yl)imidazo[1,2-a]pyrazin-8-yl)amino)-2-ethylbenzoyl)piperazin-1-yl)(piperidin-4-yl) methanone] showed an IC90 of 0.475 µM.
`CCc1cc(Nc2nccn3c(-c4cn(CCN5CCCC5)nc4C(F)(F)F)cnc23)ccc1C(=O)NCCOCCN` [Example 269, N-[2-(2-aminoethoxy)ethyl]-2-ethyl-4-[[3-[1-(2-pyrrolidin-1-ylethyl)-3-(trifluoromethyl)pyrazol-4-yl]imidazo[1,2-a]pyrazin-8-yl]amino]benzamide] showed an IC90 of 1.39 µM.
`CNC(=O)c1ccc(Nc2nccn3c(-c4cn(CC(F)F)nc4C(F)(F)F)cnc23)cc1Cl` [Example 124, 2-chloro-4-[[3-[1-(2,2-difluoroethyl)-3-(trifluoromethyl)pyrazol-4-yl]imidazo[1,2-a]pyrazin-8-yl]amino]-N-methylbenzamide] gave an IC90 of 0.121 µM.
In the case of `CCc1cc(Nc2nccn3c(-c4cn(CC(F)F)nc4C(F)(F)F)cnc23)ccc1C(=O)NCC(=O)N[C@H]1CCNC1` [Example 638, 4-[[3-[1-(2,2-difluoroethyl)-3-(trifluoromethyl)pyrazol-4-yl]imidazo[1,2-a]pyrazin-8-yl]amino]-2-ethyl-N-[2-oxo-2-[[(3S)-pyrrolidin-3-yl]amino]ethyl] benzamide formate], the IC90 is reported as 0.226 µM.
`C[C@@H]1CN(C(=O)c2ccc(Nc3nccn4c(-c5c[nH]nc5C(F)(F)F)cnc34)cc2Cl)CCN1` [Example 323, [2-chloro-4-[[3-[3-(trifluoromethyl)-1H-pyrazol-4-yl]imidazo[1,2-a]pyrazin-8-yl]amino]phenyl]-[(3R)-3-methylpiperazin-1-yl]methanone] gave an IC90 of 1.05 µM.

Same assay, conditions: strain ATCC 17961, OD600 growth over 16 h, read-out: A. baumannii ATCC 17961 IC90
For `NC1CC(NC(=O)N2CCN(C(=O)c3ccc(Nc4nccn5c(-c6c[nH]nc6C(F)(F)F)cnc45)cc3Cl)CC2)C1` (centres unmarked) [Example 265, N-(3-aminocyclobutyl)-4-[2-chloro-4-[[3-[3-(trifluoromethyl)-1H-pyrazol-4-yl]imidazo[1,2-a]pyrazin-8-yl]amino]benzoyl] piperazine-1-carboxamide formate], the IC90 was 0.231 µM.
